Laboratory results published in PubChem BioAssay AID1259407 (Chemical Carcinogenesis Research Information System (CCRIS), 2018).
The source made the active and inactive calls. The rule behind the calls is not given here.

System: CCRIS mutagenicity, Ames/micronucleus/aberration tests
Experiment: CCRIS mutagenicity studies
[1] = Test System: AMES SALMONELLA TYPHIMURIUM, Strain/Indicator: TA98, Metabolic Activation: NONE, Method: PREINCUBATION
[2] = Test System: AMES SALMONELLA TYPHIMURIUM, Strain/Indicator: TA98, Metabolic Activation: RAT, LIVER, S-9, KC 500, Method: PREINCUBATION
[3] = Test System: AMES SALMONELLA TYPHIMURIUM, Strain/Indicator: TA100, Metabolic Activation: NONE, Method: PREINCUBATION
[4] = Test System: AMES SALMONELLA TYPHIMURIUM, Strain/Indicator: TA100, Metabolic Activation: RAT, LIVER, S-9, KC 500, Method: PREINCUBATION
[5] = Test System: AMES SALMONELLA TYPHIMURIUM, Strain/Indicator: TA1535, Metabolic Activation: NONE, Method: PREINCUBATION
[6] = Test System: AMES SALMONELLA TYPHIMURIUM, Strain/Indicator: TA1535, Metabolic Activation: RAT, LIVER, S-9, KC 500, Method: PREINCUBATION
[7] = Test System: AMES SALMONELLA TYPHIMURIUM, Strain/Indicator: TA1537, Metabolic Activation: NONE, Method: PREINCUBATION
[8] = Test System: AMES SALMONELLA TYPHIMURIUM, Strain/Indicator: TA1537, Metabolic Activation: RAT, LIVER, S-9, KC 500, Method: PREINCUBATION
[9] = Test System: AMES SALMONELLA TYPHIMURIUM, Strain/Indicator: TA1538, Metabolic Activation: NONE, Method: PREINCUBATION
[10] = Test System: AMES SALMONELLA TYPHIMURIUM, Strain/Indicator: TA1538, Metabolic Activation: RAT, LIVER, S-9, KC 500, Method: PREINCUBATION
[11] = Test System: E. COLI, Strain/Indicator: WP2 UVRA, Metabolic Activation: NONE, Method: PREINCUBATION
[12] = Test System: E. COLI, Strain/Indicator: WP2 UVRA, Metabolic Activation: RAT, LIVER, S-9, KC 500, Method: PREINCUBATION
[13] = Test System: AMES SALMONELLA TYPHIMURIUM, Strain/Indicator: TA100, Metabolic Activation: NONE, Method: STANDARD PLATE
[14] = Test System: AMES SALMONELLA TYPHIMURIUM, Strain/Indicator: TA98, Metabolic Activation: NONE, Method: STANDARD PLATE

Q: How did the mutagenic call [1] turn out when `CCCCCCCCCCCCO` was run?
A: inactive; negative

Q: What about the mutagenic call [2] of the same molecule?
A: inactive; negative

Q: What about the mutagenic call [3] of the same molecule?
A: inactive; negative

Q: What about the mutagenic call [4] of the same molecule?
A: inactive; negative

Q: What about the mutagenic call [5] of the same molecule?
A: inactive; negative

Q: What about the mutagenic call [6] of the same molecule?
A: inactive; negative

Q: What about the mutagenic call [7] of the same molecule?
A: inactive; negative

Q: What about the mutagenic call [8] of the same molecule?
A: inactive; negative

Q: And the mutagenic call [9]?
A: inactive; negative

Q: What about the mutagenic call [10] of the same molecule?
A: inactive; negative

Q: What about the mutagenic call [11] of the same molecule?
A: inactive; negative

Q: And the mutagenic call [12]?
A: inactive; negative

Q: With `C=CCCCCC1CO1` (centres undefined) as the molecule, how does the mutagenic call [13] read?
A: inactive; negative

Q: And the mutagenic call (Test System: AMES SALMONELLA TYPHIMURIUM, Strain/Indicator: TA1535, Metabolic Activation: NONE, Method: STANDARD PLATE)?
A: active; positive

Q: Which results are given for `CN(C)c1ccc(N(C)C)cc1`?
A: mutagenic call (End Point: IN VITRO CHROMOSOMAL ABERRATIONS, Test System: CHINESE HAMSTER LUNG CELLS (CHL), Metabolic Activation: NONE): active; positive (structural changes); mutagenic call (End Point: IN VITRO CHROMOSOMAL ABERRATIONS, Test System: CHINESE HAMSTER LUNG CELLS (CHL), Metabolic Activation: RAT, LIVER, S-9, KC-400): active; positive (structural changes); mutagenic call (End Point: IN VITRO CHROMOSOMAL ABERRATIONS, Test System: CHINESE HAMSTER OVARY CELLS (CHO), Metabolic Activation: NONE): active; positive at highest dose; mutagenic call (End Point: IN VITRO CHROMOSOMAL ABERRATIONS, Test System: CHINESE HAMSTER OVARY CELLS (CHO), Metabolic Activation: RAT, LIVER, S-9, AROCLOR 1254): active; positive (structural changes); mutagenic call (Test System: AMES SALMONELLA TYPHIMURIUM, Strain/Indicator: TA97, Metabolic Activation: HAMSTER, LIVER, S-9, AROCLOR 1254 (10%), Method: PREINCUBATION): active; positive; mutagenic call (Test System: AMES SALMONELLA TYPHIMURIUM, Strain/Indicator: TA97, Metabolic Activation: RAT, LIVER, S-9, AROCLOR 1254 (10%), Method: PREINCUBATION): active; positive; mutagenic call (Test System: AMES SALMONELLA TYPHIMURIUM, Strain/Indicator: TA97, Metabolic Activation: RAT, LIVER, S-9, AROCLOR 1254 (30%), Method: PREINCUBATION): inactive; negative; mutagenic call (Test System: AMES SALMONELLA TYPHIMURIUM, Strain/Indicator: TA98, Metabolic Activation: HAMSTER, LIVER, S-9, AROCLOR 1254 (10%), Method: PREINCUBATION): inactive; negative; mutagenic call (Test System: AMES SALMONELLA TYPHIMURIUM, Strain/Indicator: TA98, Metabolic Activation: HAMSTER, LIVER, S-9, AROCLOR 1254 (30%), Method: PREINCUBATION): active; positive; mutagenic call [1]: inactive; negative; mutagenic call (Test System: AMES SALMONELLA TYPHIMURIUM, Strain/Indicator: TA98, Metabolic Activation: RAT, LIVER, S-9, AROCLOR 1254 (10%), Method: PREINCUBATION): inactive; negative; mutagenic call (Test System: AMES SALMONELLA TYPHIMURIUM, Strain/Indicator: TA98, Metabolic Activation: RAT, LIVER, S-9, AROCLOR 1254 (30%), Method: PREINCUBATION): inactive; negative; mutagenic call (Test System: AMES SALMONELLA TYPHIMURIUM, Strain/Indicator: TA100, Metabolic Activation: HAMSTER, LIVER, S-9, AROCLOR 1254 (10%), Method: PREINCUBATION): active; positive; mutagenic call (Test System: AMES SALMONELLA TYPHIMURIUM, Strain/Indicator: TA100, Metabolic Activation: HAMSTER, LIVER, S-9, AROCLOR 1254 (30%), Method: PREINCUBATION): active; positive; mutagenic call (Test System: AMES SALMONELLA TYPHIMURIUM, Strain/Indicator: TA100, Metabolic Activation: RAT, LIVER, S-9, AROCLOR 1254 (10%), Method: PREINCUBATION): active; positive; mutagenic call (Test System: AMES SALMONELLA TYPHIMURIUM, Strain/Indicator: TA100, Metabolic Activation: RAT, LIVER, S-9, AROCLOR 1254 (30%), Method: PREINCUBATION): active; positive; mutagenic call (Test System: AMES SALMONELLA TYPHIMURIUM, Strain/Indicator: TA1535, Metabolic Activation: HAMSTER, LIVER, S-9, AROCLOR 1254 (10%), Method: PREINCUBATION): inactive; negative; mutagenic call (Test System: AMES SALMONELLA TYPHIMURIUM, Strain/Indicator: TA1535, Metabolic Activation: HAMSTER, LIVER, S-9, AROCLOR 1254 (30%), Method: PREINCUBATION): inactive; negative; mutagenic call [5]: inactive; negative; mutagenic call (Test System: AMES SALMONELLA TYPHIMURIUM, Strain/Indicator: TA1535, Metabolic Activation: RAT, LIVER, S-9, AROCLOR 1254 (10%), Method: PREINCUBATION): inactive; negative; mutagenic call (Test System: AMES SALMONELLA TYPHIMURIUM, Strain/Indicator: TA1535, Metabolic Activation: RAT, LIVER, S-9, AROCLOR 1254 (30%), Method: PREINCUBATION): inactive; negative

Q: `Nc1ccc(-c2ccc(N)cc2[N+](=O)[O-])cc1` was tested. Which mutagenic call (Test System: AMES SALMONELLA TYPHIMURIUM, Strain/Indicator: TA98(1,8-DNP6), Metabolic Activation: NONE, Method: STANDARD PLATE) did it give?
A: active; positive

Q: What about the mutagenic call (Test System: AMES SALMONELLA TYPHIMURIUM, Strain/Indicator: TA98(1,8-DNP6), Metabolic Activation: S-9, Method: STANDARD PLATE) of the same molecule?
A: active; positive

Q: And the mutagenic call [14]?
A: active; positive

Q: What about the mutagenic call (Test System: AMES SALMONELLA TYPHIMURIUM, Strain/Indicator: TA98, Metabolic Activation: S-9, Method: STANDARD PLATE) of the same molecule?
A: active; positive

Q: What about the mutagenic call [13] of the same molecule?
A: inactive; negative

Q: And the mutagenic call (Test System: AMES SALMONELLA TYPHIMURIUM, Strain/Indicator: TA100, Metabolic Activation: S-9, Method: STANDARD PLATE)?
A: active; positive

Q: Which mutagenic call [1] does the source give for `Cc1cc(N)c(S(=O)(=O)O)cc1Cl` here?
A: inactive; negative

Q: And the mutagenic call [2]?
A: inactive; negative

Q: What about the mutagenic call [3] of the same molecule?
A: inactive; negative

Q: What about the mutagenic call [4] of the same molecule?
A: inactive; negative

Q: And the mutagenic call [5]?
A: inactive; negative

Q: What about the mutagenic call [6] of the same molecule?
A: inactive; negative

Q: And the mutagenic call [7]?
A: inactive; negative

Q: And the mutagenic call [8]?
A: inactive; negative

Q: And the mutagenic call [9]?
A: inactive; negative

Q: And the mutagenic call [10]?
A: inactive; negative

Q: And the mutagenic call [11]?
A: inactive; negative

Q: What about the mutagenic call [12] of the same molecule?
A: inactive; negative

Q: With `CC\C=C/C=C\C=C/C=C\C=C/C=C\OCC(O)CO` (centres undefined) as the molecule, how does the mutagenic call [3] read?
A: active; positive

Q: For `CN=C1C=CC(=C(c2ccc(NC)cc2)c2ccc(N(C)C)cc2)C=C1`, which mutagenic call (Test System: AMES SALMONELLA TYPHIMURIUM, Strain/Indicator: TA97, Metabolic Activation: NONE, Method: STANDARD PLATE) is on record?
A: inactive; negative

Q: And the mutagenic call (Test System: AMES SALMONELLA TYPHIMURIUM, Strain/Indicator: TA97, Metabolic Activation: RAT, LIVER, S-9, AROCLOR 1254, Method: STANDARD PLATE)?
A: inactive; negative

Q: What about the mutagenic call [14] of the same molecule?
A: inactive; negative

Q: What about the mutagenic call (Test System: AMES SALMONELLA TYPHIMURIUM, Strain/Indicator: TA98, Metabolic Activation: RAT, LIVER, S-9, AROCLOR 1254, Method: STANDARD PLATE) of the same molecule?
A: inactive; negative

Q: What about the mutagenic call [13] of the same molecule?
A: inactive; negative

Q: And the mutagenic call (Test System: AMES SALMONELLA TYPHIMURIUM, Strain/Indicator: TA100, Metabolic Activation: RAT, LIVER, S-9, AROCLOR 1254, Method: STANDARD PLATE)?
A: inactive; negative

Q: What about the mutagenic call (Test System: AMES SALMONELLA TYPHIMURIUM, Strain/Indicator: TA104, Metabolic Activation: NONE, Method: STANDARD PLATE) of the same molecule?
A: inactive; negative

Q: And the mutagenic call (Test System: AMES SALMONELLA TYPHIMURIUM, Strain/Indicator: TA104, Metabolic Activation: RAT, LIVER, S-9, AROCLOR 1254, Method: STANDARD PLATE)?
A: inactive; negative

Q: With `COc1cc2ccnc3c2c(c1OC)-c1ccccc1C3=O` as the molecule, how does the mutagenic call (Test System: AMES SALMONELLA TYPHIMURIUM, Strain/Indicator: TA100, Metabolic Activation: RAT, LIVER, S-9, PHENOBARBITAL AND BETA-NAPHTHOFLAVONE, Method: PREINCUBATION) read?
A: active; positive

Q: How did the mutagenic call [14] turn out when `O=[N+]([O-])C1=Cc2cccc3cccc1c23` was run?
A: active; positive
